# US11891601B2, “Method to enhance the transcription regulation of SUPT4H on genes containing repetitive nucleotide sequences” (National Yang-Ming University, priority 2018, dated 2024)
# Tests used:
# human RNases H = details: Budihas et al, 2005; read-out: IC50, inhibition of enzymatic activity of human RNases H; cited from earlier work
# [1] = system: R-loops on (CAG)n-eGFP in ST14A cells; test: RNA/DNA immunoprecipitation (DIP) assay of R-loops in ST14A cells expressing Q7-GFP or Q81-GFP; assay type: cell-based, rat; details: ST14A tet cells, tropolone 60 μM for 12 hours
# Description: Yeast cells were collected after culturing in 2% galactose-containing medium for 12 hours, and then grinded by glass beads in the presence of 300 μl extraction buffer (10 mM Tris-HCl pH 8.0, 10 mM EDTA, 200 mM NaCl, 1% SDS, 2% Triton X-100, 25 units RNase inhibitor). The nucleic acid mixture was subjected to sonication (Bioruptor UCD-200) and extracted by phenol (pH 8.0). Purified chromatin DNA and RNA, with or without RNase H treatment for 90 minutes, was precipitated by monoclonal antibody S9.6 bound to protein G agarose beads. […] The RNA/DNA hybrid (R-loop) signal was analyzed by qPCR and the Quantitative-Comparative CT (MCT) program. In yeast experiments, a pair of primers (Primer-B F and Primer-B R) were used to quantify R-loop signal in the vicinity of CAG repeats and the primer set AMP was used as a control. […] For Hdh^Q7/Q7 and Hdh^Q111/Q111, mouse HTT DIP primer set was used to quantify R-loop signal of the CAG repeating region and Tubal a DIP primer set was included as a control. […]
# Please refer to FIG. 6. […] A relative high signal of R-loops was detected in (CAG)7-eGFP, but this signal is not increased by tropolone. […] RNA was extracted and analyzed by real-time RT-qPCR to measure the quantity of (CAG)n-GFP, SUPT4H and snRNA U6. […]
structure (smiles),measurement,setting,value
O=c1cccccc1O [Tropolone],IC50,human RNases H,5.7 µM
same,"R-loop signal by DIP assay, (CAG)8i-eGFP",[1]; long repeat,significantly increased
same,"R-loop signal by DIP assay, (CAG)7-eGFP",[1]; short repeat (CAG)7-eGFP,not increased
